Data reported in US20160199393A1, “METHODS OF TREATING BRAIN ISCHEMIA OR HYPOXIA” (China Medical University, priority 2015, published 2016).

Tests used:
[1] = target: T1, system xc− (Mus musculus, UniProt Q9WTR6); test: Extracellular glutamate content in WT cortical cells exposed to OGDR; type: cell-based; conditions: 24 h after reperfusion, 10 μM (SAS 500 μM)
T1 construct: endogenous in cells; host or cells: primary cortical cells from E17 wild-type C57BL/6J mouse embryos, exposed to OGDR
T1 sequence (Q9WTR6 1-502): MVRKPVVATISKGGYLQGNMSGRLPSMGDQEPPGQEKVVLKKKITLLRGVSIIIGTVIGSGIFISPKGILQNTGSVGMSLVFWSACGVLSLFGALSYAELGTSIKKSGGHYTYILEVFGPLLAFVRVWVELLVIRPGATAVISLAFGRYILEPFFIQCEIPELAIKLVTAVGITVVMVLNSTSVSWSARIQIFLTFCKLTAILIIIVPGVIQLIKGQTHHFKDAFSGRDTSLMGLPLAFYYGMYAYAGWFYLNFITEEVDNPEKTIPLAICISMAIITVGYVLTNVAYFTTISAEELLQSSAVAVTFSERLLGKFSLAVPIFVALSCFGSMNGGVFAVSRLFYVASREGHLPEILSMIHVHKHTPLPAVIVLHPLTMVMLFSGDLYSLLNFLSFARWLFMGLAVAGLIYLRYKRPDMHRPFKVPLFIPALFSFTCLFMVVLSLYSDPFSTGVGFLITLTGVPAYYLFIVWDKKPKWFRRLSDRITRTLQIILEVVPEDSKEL
T1 sequence (P10852 1-526 partner): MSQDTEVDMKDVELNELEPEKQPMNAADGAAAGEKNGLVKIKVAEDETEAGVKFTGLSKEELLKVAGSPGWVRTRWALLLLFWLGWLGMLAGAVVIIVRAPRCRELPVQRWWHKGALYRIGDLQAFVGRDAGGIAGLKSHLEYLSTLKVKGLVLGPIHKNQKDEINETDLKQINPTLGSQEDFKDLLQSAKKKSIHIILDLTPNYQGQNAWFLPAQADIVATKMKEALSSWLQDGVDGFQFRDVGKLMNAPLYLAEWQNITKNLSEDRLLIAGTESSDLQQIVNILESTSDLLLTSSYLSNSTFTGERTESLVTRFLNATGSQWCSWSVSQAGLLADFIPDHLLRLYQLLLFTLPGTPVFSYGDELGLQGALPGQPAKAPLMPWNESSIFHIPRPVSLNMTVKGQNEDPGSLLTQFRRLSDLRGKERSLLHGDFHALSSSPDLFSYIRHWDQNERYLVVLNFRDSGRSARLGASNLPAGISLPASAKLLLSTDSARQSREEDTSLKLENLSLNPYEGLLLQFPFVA
Experimental: (§1) Primary cortical cells were prepared from cerebral cortices of wild-type C57BL/6J or homozygote xCT^−/− mouse embryos in embryonic day 17 as previously described with modification (Goldberg M P, Choi D W. Combined oxygen and glucose deprivation in cortical cell culture: calcium-dependent and calcium-independent mechanisms of neuronal injury. The Journal of neuroscience: the official journal of the Society for Neuroscience, 1993; 13(8):3510-24, which is incorporated here by reference).

[2] = system: WT cortical cells; test: Lactate dehydrogenase (LDH) level in WT cortical cells after OGD/OGDR; type: cell-based, mouse; conditions: OGDR, 24 h after reperfusion, 10 μM (SAS 500 μM)
Experimental: as §1
The LDH assay was carried out at 24 hours after reperfusion. *P<0.01 compared to drugs-untreated cells (Un), one-way ANOVA. Error bars denote the standard deviation among triplicate experiments.

[3] = system: neurons; test: Annexin V flow cytometric apoptosis assay after OGDR, neurons; type: cell-based, mouse; conditions: WT cortical cells, 24 h after reperfusion, 10 μM (SAS 500 μM)
Experimental: (§2) Annexin V staining was performed to determine cell apoptosis using the Annexin V-FITC Apoptosis Detection Kit (Sigma-Aldrich) for 10 min at room temperature according to the manufacturers instructions, and then flow cytometric analysis was performed.
(§3) The three-color staining flow cytometric assay using allophycocyanin-microtubule-associated protein 2 (MAP2) for neuron staining, phycoerythrin (PE)-GFAP for astrocyte staining and FITC-annexin V for apoptotic cell staining was performed to count the numbers of neurons, astrocytes, and apoptotic cells. FIGS. 21A and […] show the results of apoptosis in wild type (WT) and xCT^−/− cortical cells treated with OGDR at 24 h after reperfusion. *P<0.01 compared to WT without OGDR, Student's t-test. ^#P<0.01 compared to WT with OGDR, Student's t-test. From FIGS. 21A and 21B it was observed that that smaller numbers of apoptotic cells were present in xCT^−/− neurons and astrocytes after OGDR treatment.

[4] = system: astrocytes; test: Annexin V flow cytometric apoptosis assay after OGDR, astrocytes; type: cell-based, mouse; conditions: WT cortical cells, 24 h after reperfusion, 10 μM (SAS 500 μM)
Experimental: as §2, §3

[5] = system: cortical infarct; test: TTC staining infarct volume in rats with CIR; type: in vivo, rat; conditions: 30 mg/kg ip for 3 days, compared to vehicle
[6] = system: NMDAR; conditions: WT cortical cells, OGDR, 24 h after reperfusion; 10 μM (SAS 500 μM)
[7] = system: ischemic cortex; test: Microdialysis of extracellular glutamate in ischemic cortex of rats with CIR; type: in vivo, rat
Experimental: (§4) Eight to ten-week-old male adult male Sprague-Dawley rats, C57BL/6J mice and xCT^−/− mice were anesthetized with 1.5% isoflurane in oxygen, allowed breathing spontaneously, and body temperature was maintained at 37° C. with a heat lamp during surgery for right middle cerebral artery ligation and bilateral common carotid artery clamping as previously described (Chen S T, Hsu C Y, Hogan E L, Maricq H, Balentine J D. A model of focal ischemic stroke in the rat: reproducible extensive cortical infarction. Stroke; a journal of cerebral circulation. 1986; 17(4):738-43, which is incorporated here by reference). Animals were subjected to transient cerebral ischemia for 90 min in rats and 2 h in mice.
Samples were diluted in 20 mM borate buffer at pH 9.0 and were derivatized for 1 min with N-tert-butyloxycarbonyl-L-cysteine and o-phthaldialdehyde. Samples then were separated in a 5-mm C18 reverse-phase column (220×4.6 mm) Sheri-5 (Brownlee), and glutamate was monitored by fluorescence (334 nm excitation and 433 nm emission) using an RF-10AXL fluorescence detector (Shimadzu). Standards of glutamate were assayed before and after the dialysis samples. […]

[8] = system: TUNEL-positive cells; test: TUNEL histochemistry in the ipsilateral cerebral hemisphere of rats with CIR; type: in vivo, rat
Experimental: Animals were subjected to transient cerebral ischemia for 90 min in rats and 2 h in mice.
To detect apoptosis, a TUNEL staining Kit (DeadEnd Fluorimetric TUNEL system; Promega) was used for the TUNEL assay (Shyu W C, Lin S Z, Chiang M F, Chen D C, Su C Y, Wang H J, et al. Secretoneurin promotes neuroprotection and neuronal plasticity via the Jak2/Stat3 pathway in murine models of stroke. The Journal of clinical investigation. 2008; 118(1):133-48, which is incorporated by reference).
(§5) Rats were treated intraperitoneal injection with either vehicle, SAS (5 mg/kg/day) or the mixture of sulfapyridine (5-ASA, 3.12 mg/kg/day) and salicylate (SP, 1.72 mg/kg) for 3 days after brain ischemia.

[9] = system: cortical infarct; test: MRI infarct volume in rats with CIR; type: in vivo, rat; conditions: day 28 after reperfusion
Experimental: as §4
MRI was performed on rats under anesthesia in a General Electric imaging system (R4; GE) at 3.0 T. Brains were scanned in 6-8 coronal image slices, each 2 mm thick without any gaps. […] The area of infarct was drawn manually from slice to slice, and the volume was then calculated by internal volume analysis software (Voxtool; GE) (Shyu W C, Lin S Z, Chiang M E, Chen D C, Su C Y, Wang H J, et al. Secretoneurin promotes neuroprotection and neuronal plasticity via the Jak2/Stat3 pathway in murine models of stroke. The Journal of clinical investigation. 2008; 118(1):133-48, which is incorporated by reference). […]

[10] = system: rats with CIR; test: Neurological behavioral measurements in rats with CIR; type: in vivo, rat
Experimental: as §4
Behavioral assessments were performed 3 days before cerebral ischemia and 72 hours after cerebral ischemia. The tests measured body asymmetry and locomotor activity. Furthermore, grip strength was analyzed using Grip Strength Meter (TSE-Systems) as previously described with modification. In brief, the percentage of improvement in grip strength was measured on each fore limb separately and was calculated as the ratio between mean strength of 20 pulls of the side contralateral to the ischemia and the ipsilateral side. In addition, the ratio of grip strength after treatment to baseline was also calculated, and changes were presented as percent of baseline (Shyu W C, Lin S Z, Chiang M F, Chen D C, Su C Y, Wang H J, et al. Secretoneurin promotes neuroprotection and neuronal plasticity via the Jak2/Stat3 pathway in murine models of stroke. The Journal of clinical investigation. 2068; 118(1):133-48, which is incorporated by reference).
as §5

Structure (SMILES)	OGDR-induced glutamate release (extracellular glutamate content) [1]	LDH levels [2]	apoptosis in neurons [3]	apoptosis in astrocytes [4]	cortical infarct volume (TTC staining) [5]	hyperfunction of NMDAR (binding radioactivity of 18F-FSAG) [6]	extracellular glutamate content in ischemic cortex ([7]; 5 mg/kg/day BID for 3 days, 4 to 72 h after reperfusion)	suppression of glutamate efflux in ischemic cortex at different dosages ([7]; different dosages)	inhibition of TUNEL-positive cells at different dosages ([8]; different dosages)	number of TUNEL-positive cells ([8]; ischemic penumbra, 24 h after reperfusion)	cortical infarct size (MRI) [9]	locomotor activity (number of vertical movements, vertical activity, vertical movement time) ([10]; between 7 and 28 days after CIR, compared with controls)	improvement in grip strength ([10]; day 28 after reperfusion, compared with control groups)	body asymmetry ([10]; days 7 to 28, compared with control rats)
CNC(=O)c1cc(Oc2ccc(NC(=O)Nc3ccc(Cl)c(C(F)(F)F)c3)cc2)ccn1 [sorafenib]	inhibited	inhibited	inhibited	inhibited	significantly smaller	inhibited								
O=C(O)c1cc(/N=N/c2ccc(S(=O)(=O)Nc3ccccn3)cc2)ccc1O [sulfasalazine]	inhibited	inhibited	inhibited	inhibited		inhibited	reduction	inhibited CIR-induced glutamate release in a dose-dependent manner	decreased CIR-induced apoptosis in a dose-dependent manner	significantly reduced	remarkable size reductions	significantly higher	higher percentage of improvement	significantly reduced
